Results taken from patent publication US11154569B2, “Ruthenium μ-nitrido complexes and their use as calcium uptake inhibitors” (CORNELL UNIVERSITY, priority 2018, dated 2021).

What was measured:
[1] = test system: mitochondria isolated from NRVMs; assay: Mitochondrial swelling assay (Ca2+-induced mPTP opening); type: cell-based, rat; settings: 50 μM compound, Ca2+ 250 μM
Description: NRVMs were homogenized in ice-cold mitochondrial isolation buffer (10 mM sucrose, 200 mM mannitol, 5 mM HEPES, and 1 mM EGTA, pH 7.4) containing 1 mg/mL fatty acid-free bovine serum albumin. The homogenate was centrifuged for 10 minutes at 1000×g, and the supernatant was centrifuged again at 14,000×g for 10 minutes. The mitochondrial pellets were washed twice and centrifuged at 11,200×g. The isolated mitochondria (1 mg protein) were added to 0.2 mL of buffer mitochondrial swelling buffer (70 mM sucrose, 230 mM mannitol, 3 mM HEPES, 2 mM Trisphosphate, 5 mM succinate). Mitochondrial swelling was measured by decrease in absorbance at 540 nm after addition of Ca^2+ (250 μM). To study the protective effect of C-2 and Ru360, mitochondrial swelling assay was performed in mitochondria treated with or without the compounds (50 μM).
Additionally, the swelling of mitochondria isolated from NRVMs subjected to H/R injury in the absence or presence of C-2 or Ru360 was monitored. After baseline measurement of the absorbance at 600 nm, a single bolus of Ca^2+ (250 μM) was added to induce mPTP opening. As known, the decrease in mitochondrial absorbance indicates mitochondrial swelling and subsequent mPTP opening.

[2] = target: T1, MCU C97A mutant (Homo sapiens, UniProt Q8NE86, C97A); assay: mCa2+ uptake in permeabilized HEK293T cells expressing MCU C97A mutant; type: cell-based; settings: C-2 10 nM, Ru360 500 nM
T1 construct: stably expressing Flag-tagged full-length wild-type MCU (MCU^WT) and the mutant C97A (MCU^C97A); Flag; expressed in transfected cells
T1 sequence (Q8NE86 51-351 C97A): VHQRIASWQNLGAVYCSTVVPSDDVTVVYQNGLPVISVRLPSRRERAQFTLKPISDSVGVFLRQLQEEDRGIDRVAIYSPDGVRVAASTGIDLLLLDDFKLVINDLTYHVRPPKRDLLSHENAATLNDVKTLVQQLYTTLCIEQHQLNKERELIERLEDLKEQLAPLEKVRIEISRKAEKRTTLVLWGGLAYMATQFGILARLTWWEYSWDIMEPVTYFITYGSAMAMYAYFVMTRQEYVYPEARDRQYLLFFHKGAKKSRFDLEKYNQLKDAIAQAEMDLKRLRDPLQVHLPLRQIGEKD
T1 sequence (Q9H4I9 48-107 partner limits assumed): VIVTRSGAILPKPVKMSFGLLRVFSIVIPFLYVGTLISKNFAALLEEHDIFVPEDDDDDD
Description: (§1) An equal number of IHEK293T (6×10^6 cells) were washed in Ca^2+ free PBS, pH 7.4, resuspended and permeabilized with 40 μg/ml digitonin in 1.5 ml of intracellular medium (ICM) composed of 120 mM KCl, 10 mM NaCl, 1 mM K—H2PO4, 20 mM HE PES-Tris, pH 7.2 and 2 μM thapsigargin to block the SERCA pump. All measurements were performed in the presence of 2 mM succinate. The permeabilized cells were loaded with JC-1 (800 nM) and Fura2-FF (0.5 μM), respectively. Fluorescence was monitored in a multi-wavelength excitation dual-wavelength emission fluorimeter. [Ca^2+]out is represented as the excitation ratio (340 nm/380 nm) of Fura2-FF/FA fluorescence and ΔΨm as the ratio of the fluorescence of J-aggregate (570 nm excitation/595 nm emission) and monomer (490 nm excitation/535 nm emission) forms of JC-1. A series of extra-mitochondrial Ca^2+ bolus (20 μM) was added and mitochondrial uncoupler, CCCP (2 jμM), were added at the indicated time points. All of the experiments were performed at 37° C. with constant stirring.
To determine if C-2 interacts with the NTD, HEK293T cells stably expressing Flag-tagged full-length wild-type MCU (MCU^WT) and the mutant C97A (MCU^C97A) were permeabilized, and mCa^2+ uptake was measured as above.

[3] = test system: mCa2+ efflux channels; assay: Mitochondrial Ca2+ efflux in permeabilized HEK293T cells; type: cell-based, human; settings: for effect on mCa2+ efflux: 1 μM added after 20 μM Ca2+ pulse
Description: as §1
FIG. 4D is a graph showing assessment of mitochondrial Ca^2+ influx and efflux rates. Permeabilized HEK293T cells were pulsed with 20 μM Ca^2+ at 350 s to measure mitochondrial Ca^2+ uptake, followed by the addition of the 1 μM C-2 or Ru360 at 550 s, 10 μM CGP37157 at 600 s, and 6 μM CCCP at 750 s. In FIG. 4D, a representative trace depicts the comparison of C-2 and Ru360. FIG. 4E is a bar chart showing quantitation of Ca^2+ influx rate. FIG. 4F is a bar chart showing quantification of Ca^2+ efflux rate after addition of C-2 or Ru360. FIG. 4G is a bar chart showing quantification of CCCP-induced release of accumulated mitochondrial Ca^2+. […] To further confirm the selectivity of C-2 for the MCU, mCa^2+ uptake, mCa^2+ efflux rates and matrix Ca^2+ levels were measured in permeabilized HEK293T cells before and after treatment with C-2 using the fluorescent Ca^2+ indicator Fura-2-FF. […] Ru360 or C-2 were next added to inhibit MCU-mediated Ca^2+ uptake and subsequently visualize [Ca^2+]m efflux (FIG. 4D).

[4] = test system: neonatal rat ventricular myocytes (NRVMs); assay: Hypoxia/reoxygenation injury in neonatal rat ventricular myocytes (ΔΨm and mCa2+ uptake); type: cell-based; settings: 50 μM, 16 hours hypoxia, 8 hours reoxygenation
Description: Freshly isolated NRVMs were subjected to 16 hours of hypoxia (5% O2-5% CO2) followed by 8 hours of reoxygenation (20% O2-5% CO2). To study the protective effect of C-2, HIR was induced in NRVMs pretreated with or without C-2 (50 μM).
An equal number of NRVMs (6×10^6 cells) were washed in Ca^2+ free PBS, pH 7.4, resuspended and permeabilized with 40 μg/ml digitonin in 1.5 mL of intracellular medium (ICM) composed of 120 mM KCl, 10 mM NaCl, 1 mM KH2PO4, 20 mM Hepes-Tris, pH 7.2 and 2 μM thapsigargin to block the SERCA pump. All measurements were performed in the presence of 2 mM succinate. The simultaneous measurement of mitochondrial membrane potential (ΔΨm) and extra-mitochondrial Ca^2+([Ca^2+]) clearance were measured as above by using the JC-1 and Fura2-FF dyes. A series of extra-mitochondrial Ca^2+ bolus (10 μM) was added and mitochondrial uncoupler, CCCP (2 μM), were added at the indicated time points. All the experiments were performed at 37° C. with constant stirring.
Given the Ca^2+ uptake inhibiting properties and low toxicity of C-2, C-2 was studied for its possible ability to protect cardiomyocytes from the mCa^2+ overload that occurs during hypoxia/reoxygenation (I-H/R) injury and prevent mPTP opening and mitochondrial swelling. Freshly isolated neonatal rat ventricular myocytes (NRVMs) treated with C-2 (50 μM) were subjected to 16 hours of hypoxia (1% O2-5% CO2), followed by 8 hours of reoxygenation (21% O2-5% CO2). Untreated NRVMs served as controls. After H/R injury, NRVMs were permeabilized and loaded with the JC-1 and Fura-FF to simultaneously measure ΔΨm and mCa^2+ uptake.

Compound | mitochondrial swelling (decrease in absorbance after Ca2+ addition) [1] | effect of MCU C97A mutation on MCU inhibition compared to MCU WT cells [2] | effect on mCa2+ efflux [3] | ΔΨm after H/R injury [4] | change in activity upon treatment with CGP-37157 and CCCP ([3]; 10 μM CGP37157, 6 μM CCCP) | mCa2+ uptake after H/R injury [4]
N.N.N.N.N.N.N.N.O=C[O-].O=C[O-].[O-2].[Ru+3].[Ru+4] [Ru360, reference compound] | no decrease in absorbance was observed | almost no effect on the activity | do not affect mCa^2+ efflux channels | did not prevent H/R-mediated ΔΨm dissipation | – | –
N.N.N.N.N.N.N.N.[Cl-].[Cl-].[N-3].[Ru+4].[Ru+4] [C-2, [Ru2(μ-N)(NH3)8Cl2]Cl3] | no decrease in absorbance was observed | significantly reduced MCU inhibitory activity | do not affect mCa^2+ efflux channels | no loss of ΔΨm | No change | complete ablation of mCa^2+ uptake
